“Also recorded” adds a separate entry of the source. Like-named read-outs stand apart in the source and are kept apart here.
Assays:
Sprague-Dawley rats [1] = assay: animal or person
Procedure: (§1) Adult male Sprague-Dawley rats (250-300 g) were selected for the experiment. […] The anesthesia effects of the compounds were assessed in rats using a LORR assay and a period >30 s was considered as an indicator of general anesthesia.

H295R cell line [2] = assay: Adrenocortical function in vitro test: secretion of cortisol and corticosterone, Group A compounds; assay type: cell-based; conditions: H295 cells; for EC50: Homo sapiens, 0.1-10000 nM, HPLC-MS/MS
Sprague-Dawley rats [3] = system: Sprague-Dawley rats
Procedure: Adult male Sprague-Dawley rats with body weight ranging from 250 to 300 gm were selected for continuous infusion test. […] Time to recovery of righting reflex from stopping infusion, and time to fully awake from stopping infusion were recorded.

Sprague-Dawley rats [4] = assay: animal or person; remark: listed apart in the source
Procedure: as §1

H295R cell line [5] = assay: Adrenocortical function in vitro test: secretion of cortisol and corticosterone, Group B compounds; assay type: cell-based; conditions: H295R cells; for EC50: Homo sapiens, NCI-H295R, 0.1-10000 nM, HPLC-MS/MS
[6] = system: circulatory function of rats; conditions: rat, in vivo
Procedure: First, animal models were established. […] At least one week after surgery, data were recorded.
Finally, the pharmacological effects, adverse reactions, and behavioral manifestations of the rats were observed and recorded
After data acquisition, the test was stopped.

Sprague-Dawley rats [7] = assay: Continuous infusion at 2 times the MIR for 1 hour, Group B compounds; assay type: in vivo
Sprague-Dawley rats [8] = assay: animal or person; assay type: in vivo; conditions: Rattus norvegicus; LORR, up and down method, tail vein, rats; brackets = 95% confidence limit; read-out: ED50
From the text: (§2) Evaluating indicator: The end point of anesthesia: LORR was used as the end point of anesthesia; General anesthesia effect: the disappearance of forepaw righting reflex in rats lasting for 30 seconds is taken as the index of general anesthesia effect; Anesthesia recovery index: the recovery of rat forepaw righting reflex was used as the index of anesthesia recovery.

Sprague-Dawley rats [9] = assay: Pharmacological effect and adverse reactions under the equivalent dose (2ED50), Group C compounds; assay type: in vivo
From the text: (§3) Evaluation index: onset time: from the completion of drug injection to the disappearance of forepaw righting reflex in rats; Duration of anesthesia: the time from the disappearance of rat forepaw righting reflex to the recovery of rat forepaw righting reflex; Recovery time of anesthesia: the time from the […] to complete recovery;

SD rats [10] = system: SD rats
Method in brief: (§4)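 Adult male SD rats (250–350 g) received continuous infusion. Read-outs: time from infusion start to […]; after 1 h infusion, time from stop to return of forepaw turning reflex and to full recovery.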

Sprague-Dawley rats [11] = assay: animal or person; assay type: in vivo; conditions: Rattus norvegicus; LORR, up and down method, tail vein, rats; brackets = 95% confidence limit; read-out: ED50; remark: listed apart in the source
From the text: as §2, with “the disappearance of forepaw righting reflex (lorr)” for “LORR”

Sprague-Dawley rats [12] = assay: Pharmacological effect and adverse reactions under the equivalent dose (2ED50), Group D compounds; assay type: in vivo
From the text: as §3

SD rats [13] = system: SD rats; remark: listed apart in the source
Method in brief: as §4

adrenal cortex function [14] = conditions: rat, in vivo
[15] = system: circulatory function of rats; conditions: rat, in vivo; remark: listed apart in the source
adrenal cortex function [16] = conditions: rat, in vivo; remark: listed apart in the source
Sprague-Dawley rats [17] = assay type: in vivo; conditions: tail vein
Sprague-Dawley rats [18] = assay type: in vivo; conditions: tail vein; remark: listed apart in the source
11β-Hydroxylase = molecular target: T1, 11β-Hydroxylase (Homo sapiens, UniProt P15538); conditions: cited from earlier work
T1 sequence (P15538 25-503): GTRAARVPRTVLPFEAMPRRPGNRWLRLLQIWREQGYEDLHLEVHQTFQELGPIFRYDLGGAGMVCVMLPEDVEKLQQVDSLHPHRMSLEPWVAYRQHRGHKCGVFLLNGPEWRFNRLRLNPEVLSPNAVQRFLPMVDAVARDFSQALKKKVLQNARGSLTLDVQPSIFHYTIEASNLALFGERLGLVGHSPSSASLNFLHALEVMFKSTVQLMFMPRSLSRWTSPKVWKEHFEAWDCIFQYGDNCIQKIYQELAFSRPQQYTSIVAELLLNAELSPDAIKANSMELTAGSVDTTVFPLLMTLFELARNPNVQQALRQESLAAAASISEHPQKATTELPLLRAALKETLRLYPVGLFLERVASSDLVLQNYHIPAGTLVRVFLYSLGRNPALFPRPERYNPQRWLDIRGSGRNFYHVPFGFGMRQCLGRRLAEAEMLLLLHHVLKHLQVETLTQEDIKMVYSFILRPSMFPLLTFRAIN

[19] = system: circulatory function of rats; assay: Circulatory function of rats (MAP, HR) by implanted telemetry, Group C compounds; conditions: 2ED50, rats, FIG. 13-16
From the text: (§5) First, the animal model was established, and the left ventricular catheter, abdominal aorta catheter and electrocardiogram wire were placed. At least one week after the operation, the signal can be collected to start the test. At the beginning of the experiment, after the placement of the indwelling needle in the tail vein of rats, connect the extension tube, put the rats together with the feeding cage on the signal receiver and start collecting data. […] All compounds or drugs were given at a constant volume of 0.6 ml at a uniform rate of 0.1 ml/s.

[20] = system: circulatory function of rats; assay: Circulatory function of rats (MAP, HR) by implanted telemetry, Group D compounds; conditions: 2ED50, rats, FIG. 19-22
From the text: as §5
Evaluation indexes: Collect the blood pressure, heart rate and other data of rats during and 15 minutes after administration, and judge the effect of the compound of the invention on the circulatory function of rats with the indexes of mean arterial pressure (MAP) and heart rate (HR).

[21] = read-out: EC50 (Corticosterone)
[22] = continuous infusion 2 x MIR 1 hour, rats affected/rats
[23] = 2ED50, tail vein, rats, n=8, unit s
[24] = equivalent dose (2ED50), number of rats of n = 8
[25] = after 1 hour continuous infusion at 2 times the MIR, SD rats
[26] = continuous tail vein infusion at 2 times the MIR, SD rats
[27] = equivalent dose (2 × ED50), number of rats of n = 8

CCOC(=O)c1cncn1C(C)c1ccccc1 (stereo not drawn) [Etomidate, reference compound]
ED50 (Sprague-Dawley rats [1]; Rattus norvegicus): 0.75 mg/kg | Minimal lethal dose (Sprague-Dawley rats [1]; rats): 12.75 mg/kg | Corticosterone as an indicator to determine the presence of inhibition (H295R cell line [2]): 2 | Cortisol as an indicator to determine the presence of inhibition (H295R cell line [2]): 2 | EC50 (H295R cell line [2]; [21]): > 10 nM | EC50 (H295R cell line [2]; read-out: EC50 (Cortisol)): > 1 nM | Recovery time after stopping infusion (Sprague-Dawley rats [3]; LORR maintained for 1 hour, 2 times the MIR): 25 to 30 min | Onset time (Sprague-Dawley rats [3]; continuous infusion, 2 times the MIR): 4 to 5 min | Types and incidence of adverse reactions (Sprague-Dawley rats [3]; continuous infusion, (animals affected/animals)): Tonguestretching(5/6); also recorded: Tremor(6/6), Facial; also recorded: muscle twitching (4/6) | ED50 (Sprague-Dawley rats [4]; Rattus norvegicus, LORR in rats, tail vein, brackets = 95% confidence limit): 0.75 mg/kg | Minimal lethal dose (Sprague-Dawley rats [4]; rats): 12.75 mg/kg | Corticosterone as an indicator to determine the presence of inhibition (H295R cell line [5]): 2 | Cortisol as an indicator to determine the presence of inhibition (H295R cell line [5]): 2 | EC50 (H295R cell line [5]; [21]): > 10 nM | EC50 (H295R cell line [5]; read-out: EC50 (Cortisol)): > 1 nM | inhibitory effect on the circulatory function (MAP, HR) [6]: almost no inhibitory effect on the circulatory function | Recovery time after stopping infusion (Sprague-Dawley rats [7]; after 1 hour continuous infusion at 2 times the MIR, rats): 25 to 30 min | Types and incidence of adverse reactions: Facial muscle twitching (Sprague-Dawley rats [7]; [22]): 4/6 | Types and incidence of adverse reactions: Tongue stretching (Sprague-Dawley rats [7]; [22]): Tongue stretching (5/6) | Types and incidence of adverse reactions: Tremor (Sprague-Dawley rats [7]; [22]): Tremor (6/6), Facial | Onset time (Sprague-Dawley rats [7]; continuous tail vein infusion at 2 times the MIR, emulsion, rats): 4 to 5 min | ED50 (Sprague-Dawley rats [8]): 0.74 mg/kg | Onset time (Sprague-Dawley rats [9]; [23]): <30 s | Adverse reaction: Convulsions (Sprague-Dawley rats [9]; [24]): 0 | Adverse reaction: Cough, broken-winded (Sprague-Dawley rats [9]; [24]): 0 | Adverse reaction: Euphoria (Sprague-Dawley rats [9]; [24]): 0 | Adverse reaction: Slower breathing, Tetany convulsion (Sprague-Dawley rats [9]; [24]): 0 | Adverse reaction: Systemic stiffness, Convulsions, Opisthotonus (Sprague-Dawley rats [9]; [24]): 0 | Adverse reaction: Tongue stretching (Sprague-Dawley rats [9]; [24]): 4 | Adverse reaction: Tremor (Sprague-Dawley rats [9]; [24]): 6 | Adverse reaction: the four limbs rigidity (Sprague-Dawley rats [9]; [24]): 0 | After the infusion is stopped: Righting reflex recovery time (SD rats [10]; [25]): 15 to 20 min | Recovery time after stopping infusion (SD rats [10]; [25]): 30 to 40 min | Types and incidence of adverse reactions: Hindlimb rigidity (SD rats [10]; [22]): Hindlimb rigidity(2/6) | Types and incidence of adverse reactions: Myoclonus (SD rats [10]; [22]): 4/6 | Types and incidence of adverse reactions: Tongue stretching (SD rats [10]; [22]): Tongue stretching(2/6), | Types and incidence of adverse reactions: Tremor (SD rats [10]; [22]): 6/6 | Sedation onset time (SD rats [10]; [26]): <5 min | ED50 (Sprague-Dawley rats [11]): 0.74 mg/kg | Onset time (Sprague-Dawley rats [12]; [23]): <30 s | Adverse reaction: Convulsions (Sprague-Dawley rats [12]; [27]): 0 | Adverse reaction: Cough, broken-winded (Sprague-Dawley rats [12]; [27]): 0 | Adverse reaction: Euphoria (Sprague-Dawley rats [12]; [27]): 0 | Adverse reaction: Four limbs rigidity (Sprague-Dawley rats [12]; [27]): 2 | Adverse reaction: Slower breathing, Tetany convulsion (Sprague-Dawley rats [12]; [27]): 0 | Adverse reaction: Systemic stiffness, Convulsions, Opisthotonus (Sprague-Dawley rats [12]; [27]): 0 | Adverse reaction: Tongue stretching (Sprague-Dawley rats [12]; [27]): 4 | Adverse reaction: Tremor (Sprague-Dawley rats [12]; [27]): 3 | After the infusion is stopped: Righting reflex recovery time (SD rats [13]; [25]): 15 to 20 min | Recovery time after stopping infusion (SD rats [13]; [25]): 30 to 40 min | Types and incidence of adverse reactions: Hindlimb rigidity (SD rats [13]; [22]): Hindlimb rigidity(2/6) | Types and incidence of adverse reactions: Myoclonus (SD rats [13]; [22]): 4/6 | Types and incidence of adverse reactions: Tongue stretching (SD rats [13]; [22]): Tongue stretching(2/6), | Types and incidence of adverse reactions: Tremor (SD rats [13]; [22]): 6/6 | Sedation onset time (SD rats [13]; [26]): <5 min | effect on the synthesis of adrenal cortex hormone (serum corticosterone) (adrenal cortex function [14]): obvious inhibitory effect on adrenal cortex function | inhibitory effect on the circulatory function (MAP, HR) [15]: almost no inhibitory effect on the circulatory function | effect on the synthesis of adrenal cortex hormone (serum corticosterone) (adrenal cortex function [16]): obvious inhibitory effect on adrenal cortex function | Minimal lethal dose (Sprague-Dawley rats [17]): 13.8 mg/kg | Minimal lethal dose (Sprague-Dawley rats [18]): 13.8 mg/kg | inhibition of 11β-Hydroxylase (11β-Hydroxylase): can inhibit the key enzymes in the synthesis pathway of adrenocortical hormone | effect on the circulatory function (MAP, HR) [19]: slight inhibitory effect on the circulatory function after administration, but soon rises to near the baseline | effect on the circulatory function (MAP, HR) [20]: slight inhibitory effect on the circulatory function after administration, but soon rises to near the baseline
